Counter-ions that a name gives are not always drawn.
These molecules were tested on Lettuce seeds (assay: Filter paper bioassay on germination and early development of Lettuce seeds). Details: 144 h, lowest concentration causing malformation of radicle or shoots; visually assessed six days after beginning; 0 to 1 mmol/l; read-out: MEC, score (Minimal Effective Concentration, activity score) (converted).
Assay type: in vivo
Protocol: Materials: Seeds of Lettuce R. (Super-Jericho, non-sterilized) were obtained from Ben Shahar Moshe Ltd., 99% purity. The test compounds listed in Table 3 below were synthesized de novo or purchased from different vendors. Bioassays: Filter Paper Bioassays with Lettuce seeds were performed following Bertin et al. 2009 with modifications as described below. Seeds were placed on Whatman no. 1 filter paper (Whatman, Middlesex, U.K.) in Petri dishes (10 seeds per plate) with 2.0 ml of an aqueous solution of test material in a concentration ranging from 0 (control) to 1 mmol/l. The Petri dishes were arranged in a tray tilted at a 45-degree angle and were kept in the dark for 48 hours. Then trays with plates were transferred to the growth chamber with a 6/18 dark/light cycle for four days. Each experiment was performed in at least two repeats.
The development of plants' radicles and shoots was visually assessed six days after the beginning of the test to determine the Minimal Effective Concentration (MEC) of a test material. In the context of the invention, MEC is defined as the lowest concentration level of a test material that caused deviation (malformation of radicle or shoots).

| SMILES | minimal effective concentration [µM] |
| --- | --- |
| CCOC(=O)CSc1csc(Cl)n1 [compound 5850, ethyl 2-[(2-chloro-1,3-thiazol-4-yl)sulfanyl]acetate] | 10 |
| O=C(O)CS(=O)(=O)c1csc(Cl)n1 [compound 5851, (2-chloro-1,3-thiazol-4-sulfonyl)acetic acid] | 1 |
| O=C(O)CSc1cccc(Br)n1 [compound 6688, [(6-bromopyridin-2-yl)sulfanyl]acetic acid] | 1 |
| CCOC(=O)CSc1cccc(Br)n1 [compound 6693, ethyl [(6-bromopyridin-2-yl)sulfanyl]acetate] | 1 |
| CCCCOC(=O)CSc1nc(Cl)ccc1Br [compound 6694, butyl [(3-bromo-6-chloropyridin-2-yl)sulfanyl]acetate] | 1 |
| CCCCOC(=O)CSc1ccc(Br)c(Br)n1 [compound 6700, butyl [(5,6-dibromopyridin-2-yl)sulfanyl]acetate] | 1 |
| O=C(O)CNc1cccc(Br)n1 [compound 6702, 2-[(6-bromopyridin-2-yl)amino]acetic acid] | 1 |
| CCCCOC(=O)C[S+]([O-])c1ccc(Br)c(Br)n1 (centres unmarked) [compound 6703, butyl (5,6-dibromopyridine-2-sulfinyl)acetate] | 10 |
| NCCCCNc1ccc(Br)c(Br)n1 [compound 6709, N1-(5,6-dibromopyridin-2-yl)butane-1,4-diamine] | 10 |
| CCCCCCCCOC(=O)CSc1cccc(Br)n1 [compound 7106, octyl [(6-bromopyridin-2-yl)sulfanyl]acetate] | 10 |
| O=C(O)CSc1nc(Cl)cs1 [compound 7109, 2-[(4-chloro-1,3-thiazol-2-yl)sulfanyl]acetic acid] | 10 |
| CCOC(=O)CSc1nc(Cl)cs1 [compound 7112, ethyl [(4-chloro-1,3-thiazol-2-yl)sulfanyl]acetate] | 10 |
| CCOC(=O)Cc1ccc(F)c(Br)n1 [compound 7117, ethyl (6-bromo-5-fluoropyridin-2-yl)acetate] | 10 |
| CCOC(=O)CSc1nc(Cl)sc1Cl [compound 7119, ethyl 2-[(2,5-dichloro-1,3-thiazol-4-yl)sulfanyl]acetate] | 10 |
| O=C(Cc1ccccc1)NCCCNc1cccc(Br)n1 [compound 7121, N-{3-[(6-bromopyridin-2-yl)amino]propyl}-2-phenylacetamide] | 10 |
| O=C(O)CNc1ccc(Br)c(Br)n1 [compound 7122, 2-[(5,6-dibromopyridin-2-yl)amino]acetic acid] | 1 |
| O=C(O)CSc1nc(Br)ccc1Br [compound 7124, [(3,6-dibromopyridin-2-yl)sulfanyl]acetic acid] | 1 |
| O=C(O)CNc1nc(Cl)cs1 [compound 7125, 2-[(4-chloro-1,3-thiazol-2-yl)amino]acetic acid] | 10 |
| CCOC(=O)c1c[nH]cc1CC#N [compound 7131, ethyl 4-(cyanomethyl)-1H-pyrrole-3-carboxylate] | 10 |
| O=C(O)C[S+]([O-])c1nc(Cl)sc1Cl (centres unmarked) [compound 7137, (2,5-dichloro-1,3-thiazole-4-sulfinyl)acetic acid] | 10 |

| SMILES | minimal effective concentration [µM] |
| --- | --- |
| O=C(O)CS(=O)(=O)c1nc(Cl)sc1Cl [compound 7138, (2,5-dichloro-1,3-thiazol-4-sulfonyl)acetic acid] | 10 |
| CCOCCOCCOC(=O)CSc1ccc(Br)c(Br)n1 [compound 7139, 2-(2-ethoxyethoxy)ethyl [(5,6-dibromopyridin-2-yl)sulfanyl]acetate] | 1 |
| O=C(O)CC#Cc1nc(Cl)sc1Cl [compound 7145, 4-(2,5-dichloro-1,3-thiazol-4-yl)but-3-ynoic acid] | 1 |
| O=C(O)CNc1c(Cl)csc1Cl [compound 7147, 2-[(2,4-dichlorothiophen-3-yl)amino]acetic acid hydrochloride] | 10 |
| O=C(O)CNc1ccc(F)c(Br)n1 [compound 7148, 2-[(6-bromo-5-fluoropyridin-2-yl)amino]acetic acid] | 10 |
| O=C(O)CSc1ccc(F)c(Br)n1 [compound 7151, [(6-bromo-5-fluoropyridin-2-yl)sulfanyl]acetic acid] | < 1 |
| CCOC(=O)CSc1nc(Br)ccc1F [compound 7160, ethyl 2-[(6-bromo-3-fluoropyridin-2-yl)sulfanyl]acetate] | < 1 |
| O=C(O)CCCCNc1ccc(F)c(Br)n1 [compound 7165, 5-[(6-bromo-5-fluoropyridin-2-yl)amino]pentanoic acid] | 10 |
| COC(=O)Cc1nc(Cl)sc1C#N [compound 7167, methyl 2-(2-chloro-5-cyano-1,3-thiazol-4-yl)acetate] | 10 |
| COC(=O)Cc1ncsc1C#N [compound 7168, methyl 2-(5-cyano-1,3-thiazol-4-yl)acetate] | 10 |
| O=C(O)CNc1nc(Br)c(Br)cc1F [compound 7169, 2-[(5,6-dibromo-3-fluoropyridin-2-yl)amino]acetic acid] | 1 |
| O=C(O)CCCCNc1nc(Br)c(Br)cc1F [compound 7170, 5-[(5,6-dibromo-3-fluoropyridin-2-yl)amino]pentanoic acid] | 1 |
| CCOCCOCCOC(=O)COc1ccc(Br)c(Br)n1 [compound 7172, 2-(2-ethoxyethoxy)ethyl [(5,6-dibromopyridin-2-yl)oxy]acetate] | 1 |
| O=C(O)CCCSc1ccc(Br)c(Br)n1 [compound 7174, 4-[(5,6-dibromopyridin-2-yl)sulfanyl]butanoic acid] | < 1 |
| O=C(O)CCSc1ccc(Br)c(Br)n1 [compound 7178, 3-[(5,6-dibromopyridin-2-yl)sulfanyl]propanoic acid] | 1 |
| CC(Sc1ccc(Br)c(Br)n1)C(=O)O (centres unmarked) [compound 7182, 2-[(5,6-dibromopyridin-2-yl)sulfanyl]propanoic acid] | 10 |
| O=C(O)CCCCSc1ccc(Br)c(Br)n1 [compound 7187, 5-[(5,6-dibromopyridin-2-yl)sulfanyl]pentanoic acid] | 1 |
| CCOC(=O)C(Cl)(Cl)c1csc(Cl)n1 [compound 7188, ethyl dichloro(2-chloro-1,3-thiazol-4-yl)acetate] | 100 |
| CCOC(=O)Sc1csc(Cl)n1 [compound 7189, S-(2-chloro-1,3-thiazol-4-yl) O-ethyl carbonothioate] | 10 |
| O=C(O)c1csc(Cl)n1 [compound 7194, 2-chloro-1,3-thiazole-4-carboxylic acid] | 100 |

Same assay, conditions: lowest concentration causing malformation of radicle or shoots; visually assessed six days after beginning; 0 to 1 mmol/l

| SMILES | activity score |
| --- | --- |
| O=C(Cc1ccccc1)NCCCCNc1cccc(Br)n1 [compound 7123, N-{4-[(6-bromopyridin-2-y1)amino]butyl}-2-phenylacetamide] | 4 (0.01 mM) |

— patent US20250374926A1, “NOVEL DERIVATIVES OF NON-CODED AMINO ACIDS AND THEIR USE IN CROP PROTECTION” (FORTEPHEST LTD., priority 2022, published 2025)
